Our source for the IC50 values is ChEMBL document CHEMBL4765443, “Covalent and noncovalent constraints yield a figure eight-like conformation of a peptide inhibiting the menin-MLL interaction” (Eur J Med Chem, 2020).

pIC50: −log10 of the molar value. Starred links: 1 amine or outer side, 2 acyl side, 3 side chain; linkers in the order of their positions; H or OH if unused. Positions of bridges follow the written chain, without caps; N, C: chain ends. Non-standard residues stand in square brackets, D forms with d. Residues, ends and D or L forms follow the SMILES beside them. Hag = O=C([C@H](CCC=[*:3])N[*:1])[*:2]; Phe(3-F) = N[C@@H](Cc1cccc(F)c1)C(=O)O; AllylGly = C=CC[C@H](N)C(=O)O; Orn = NCCC[C@H](N)C(=O)O; Ac4c = NC1(C(=O)O)CCC1

For assay [1], the target named is T1, Menin/Histone-lysine N-methyltransferase MLL (Homo sapiens, UniProt O00255). The experiment in a line: Inhibition of Menin-MLL protein-protein interaction (unknown origin) preincubated for 1 hr in presence of FLSN-MLL4-43 peptide followed by compound addition and measured after 1 hr by fluorescence polarization assay.
The target in assay [2] is T1, Menin/Histone-lysine N-methyltransferase MLL. As to the kind of experiment: Inhibition of Menin-MLL protein-protein interaction (unknown origin) preincubated for 1 hr in presence of FLSN-MBM1 peptide followed by compound addition and measured after 1 hr by fluorescence polarization assay.

T1 sequence (O00255 whole entry): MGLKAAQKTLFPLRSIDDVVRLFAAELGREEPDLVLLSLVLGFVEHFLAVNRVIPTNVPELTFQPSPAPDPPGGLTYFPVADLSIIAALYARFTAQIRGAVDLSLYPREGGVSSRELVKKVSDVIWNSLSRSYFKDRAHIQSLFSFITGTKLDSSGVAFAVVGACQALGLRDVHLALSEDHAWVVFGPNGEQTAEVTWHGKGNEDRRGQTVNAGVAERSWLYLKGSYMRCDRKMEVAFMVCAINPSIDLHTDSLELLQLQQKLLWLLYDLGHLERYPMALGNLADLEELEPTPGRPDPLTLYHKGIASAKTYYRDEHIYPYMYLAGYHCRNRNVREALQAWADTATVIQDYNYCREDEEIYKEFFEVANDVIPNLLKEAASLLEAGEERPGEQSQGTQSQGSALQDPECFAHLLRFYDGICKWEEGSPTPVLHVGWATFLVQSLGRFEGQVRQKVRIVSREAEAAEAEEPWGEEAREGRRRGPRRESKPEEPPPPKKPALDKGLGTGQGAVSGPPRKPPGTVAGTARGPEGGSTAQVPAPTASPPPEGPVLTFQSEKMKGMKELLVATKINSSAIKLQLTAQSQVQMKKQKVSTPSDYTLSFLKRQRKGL
T1 sequence (Q03164 1-2718 partner limits assumed): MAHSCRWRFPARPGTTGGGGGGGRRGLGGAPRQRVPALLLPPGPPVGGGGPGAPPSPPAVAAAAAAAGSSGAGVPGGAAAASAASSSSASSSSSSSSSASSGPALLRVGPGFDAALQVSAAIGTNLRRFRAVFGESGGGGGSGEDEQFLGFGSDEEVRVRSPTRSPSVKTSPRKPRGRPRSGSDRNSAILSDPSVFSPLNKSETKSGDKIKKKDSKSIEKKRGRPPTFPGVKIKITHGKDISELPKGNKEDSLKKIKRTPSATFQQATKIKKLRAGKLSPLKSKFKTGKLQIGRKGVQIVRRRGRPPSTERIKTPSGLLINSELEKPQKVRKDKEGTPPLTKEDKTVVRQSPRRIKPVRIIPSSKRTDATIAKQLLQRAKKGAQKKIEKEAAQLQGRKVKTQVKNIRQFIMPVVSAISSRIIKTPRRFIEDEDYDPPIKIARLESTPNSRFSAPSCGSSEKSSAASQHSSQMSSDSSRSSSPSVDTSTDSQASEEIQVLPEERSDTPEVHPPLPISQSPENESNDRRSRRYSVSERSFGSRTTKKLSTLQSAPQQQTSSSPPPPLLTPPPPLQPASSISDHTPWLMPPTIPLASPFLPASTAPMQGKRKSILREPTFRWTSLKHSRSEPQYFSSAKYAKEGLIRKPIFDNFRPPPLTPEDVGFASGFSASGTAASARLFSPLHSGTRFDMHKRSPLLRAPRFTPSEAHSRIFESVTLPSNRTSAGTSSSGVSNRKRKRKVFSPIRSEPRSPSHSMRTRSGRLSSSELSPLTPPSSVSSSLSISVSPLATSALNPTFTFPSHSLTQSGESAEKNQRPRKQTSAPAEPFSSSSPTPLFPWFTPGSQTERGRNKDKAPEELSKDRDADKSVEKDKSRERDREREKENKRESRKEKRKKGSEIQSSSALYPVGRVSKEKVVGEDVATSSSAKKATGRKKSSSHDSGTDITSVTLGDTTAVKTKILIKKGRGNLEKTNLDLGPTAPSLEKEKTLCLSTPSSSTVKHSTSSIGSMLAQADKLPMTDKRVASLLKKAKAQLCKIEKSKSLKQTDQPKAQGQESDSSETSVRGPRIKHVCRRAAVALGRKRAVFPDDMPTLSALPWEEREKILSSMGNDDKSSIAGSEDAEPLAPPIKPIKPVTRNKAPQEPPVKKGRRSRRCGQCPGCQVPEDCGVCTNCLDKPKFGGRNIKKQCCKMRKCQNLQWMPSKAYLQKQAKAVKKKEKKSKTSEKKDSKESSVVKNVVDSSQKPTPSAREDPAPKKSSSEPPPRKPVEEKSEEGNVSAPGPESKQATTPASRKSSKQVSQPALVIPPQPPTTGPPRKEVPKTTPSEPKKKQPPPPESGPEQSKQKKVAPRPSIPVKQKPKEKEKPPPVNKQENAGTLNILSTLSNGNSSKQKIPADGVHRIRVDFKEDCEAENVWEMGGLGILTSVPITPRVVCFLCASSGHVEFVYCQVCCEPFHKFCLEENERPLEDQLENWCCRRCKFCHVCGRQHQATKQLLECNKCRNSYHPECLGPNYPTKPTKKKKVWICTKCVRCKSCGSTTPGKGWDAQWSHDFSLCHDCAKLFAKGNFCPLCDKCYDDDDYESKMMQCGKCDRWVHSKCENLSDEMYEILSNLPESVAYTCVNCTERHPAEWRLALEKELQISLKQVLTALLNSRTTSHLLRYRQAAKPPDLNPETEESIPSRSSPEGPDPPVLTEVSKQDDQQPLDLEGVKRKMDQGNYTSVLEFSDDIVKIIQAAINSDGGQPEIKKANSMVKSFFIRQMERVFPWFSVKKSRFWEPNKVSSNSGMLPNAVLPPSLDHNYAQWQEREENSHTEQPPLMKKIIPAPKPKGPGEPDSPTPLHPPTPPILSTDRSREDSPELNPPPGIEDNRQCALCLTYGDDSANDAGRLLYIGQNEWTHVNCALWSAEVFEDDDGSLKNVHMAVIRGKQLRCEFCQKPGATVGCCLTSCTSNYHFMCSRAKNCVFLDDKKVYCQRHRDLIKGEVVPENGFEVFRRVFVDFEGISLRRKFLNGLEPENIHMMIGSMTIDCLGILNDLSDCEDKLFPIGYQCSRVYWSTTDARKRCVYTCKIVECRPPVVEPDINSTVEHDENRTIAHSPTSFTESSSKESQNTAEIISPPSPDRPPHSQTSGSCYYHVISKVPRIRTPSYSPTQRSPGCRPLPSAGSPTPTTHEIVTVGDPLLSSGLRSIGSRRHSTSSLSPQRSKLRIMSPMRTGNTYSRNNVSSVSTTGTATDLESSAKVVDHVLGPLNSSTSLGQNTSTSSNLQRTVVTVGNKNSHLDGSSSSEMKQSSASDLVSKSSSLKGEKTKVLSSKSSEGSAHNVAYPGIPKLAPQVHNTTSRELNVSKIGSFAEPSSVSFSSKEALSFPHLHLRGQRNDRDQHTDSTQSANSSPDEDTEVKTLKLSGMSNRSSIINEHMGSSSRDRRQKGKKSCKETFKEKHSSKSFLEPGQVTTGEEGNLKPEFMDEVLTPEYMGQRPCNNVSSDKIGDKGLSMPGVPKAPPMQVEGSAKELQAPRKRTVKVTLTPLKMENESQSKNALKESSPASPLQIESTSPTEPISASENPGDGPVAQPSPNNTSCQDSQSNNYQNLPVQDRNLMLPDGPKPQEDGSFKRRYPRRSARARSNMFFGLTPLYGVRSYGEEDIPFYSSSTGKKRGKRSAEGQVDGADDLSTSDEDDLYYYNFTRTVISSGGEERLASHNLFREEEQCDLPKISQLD
T1 sequence (Q03164 2719-3969 partner limits assumed): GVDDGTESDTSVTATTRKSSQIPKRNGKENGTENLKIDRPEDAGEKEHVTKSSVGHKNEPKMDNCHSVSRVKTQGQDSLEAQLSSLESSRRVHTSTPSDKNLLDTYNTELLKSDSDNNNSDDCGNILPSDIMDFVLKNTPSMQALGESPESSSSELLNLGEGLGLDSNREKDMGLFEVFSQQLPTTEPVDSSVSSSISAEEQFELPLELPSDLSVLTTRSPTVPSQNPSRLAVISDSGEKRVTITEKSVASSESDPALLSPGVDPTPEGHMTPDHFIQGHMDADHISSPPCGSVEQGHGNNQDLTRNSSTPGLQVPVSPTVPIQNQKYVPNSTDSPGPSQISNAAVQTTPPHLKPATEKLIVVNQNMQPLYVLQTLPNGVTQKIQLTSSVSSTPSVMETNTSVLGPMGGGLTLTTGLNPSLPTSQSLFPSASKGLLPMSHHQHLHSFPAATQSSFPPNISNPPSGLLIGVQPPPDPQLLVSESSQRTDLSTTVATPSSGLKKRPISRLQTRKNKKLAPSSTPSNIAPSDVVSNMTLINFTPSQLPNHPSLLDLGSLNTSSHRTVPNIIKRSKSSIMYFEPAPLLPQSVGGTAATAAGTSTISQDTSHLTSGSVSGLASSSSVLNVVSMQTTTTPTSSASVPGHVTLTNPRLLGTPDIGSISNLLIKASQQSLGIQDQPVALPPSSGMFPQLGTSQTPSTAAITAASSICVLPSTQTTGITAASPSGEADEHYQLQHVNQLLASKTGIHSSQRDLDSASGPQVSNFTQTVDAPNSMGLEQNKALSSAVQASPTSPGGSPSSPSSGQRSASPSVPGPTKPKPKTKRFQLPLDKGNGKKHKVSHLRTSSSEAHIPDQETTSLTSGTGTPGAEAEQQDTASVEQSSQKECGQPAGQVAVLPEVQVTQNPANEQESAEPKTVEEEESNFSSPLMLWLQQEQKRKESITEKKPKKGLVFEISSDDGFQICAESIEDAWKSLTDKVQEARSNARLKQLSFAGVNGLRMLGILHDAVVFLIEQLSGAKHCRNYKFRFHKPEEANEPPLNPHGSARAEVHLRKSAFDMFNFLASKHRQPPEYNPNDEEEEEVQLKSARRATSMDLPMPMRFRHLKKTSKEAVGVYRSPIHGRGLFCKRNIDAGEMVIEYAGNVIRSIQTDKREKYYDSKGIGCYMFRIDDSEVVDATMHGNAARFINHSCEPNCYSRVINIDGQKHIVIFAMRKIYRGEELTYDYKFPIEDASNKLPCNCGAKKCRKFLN

Take `CC(=O)N[C@@H](C)C(=O)N[C@@H](CCCNC(=N)N)C(=O)N[C@@H](Cc1c[nH]c2ccccc12)C(=O)N[C@H]1CCCC[C@@H](C(=O)N2CCC[C@H]2C(=O)N[C@@H](CCCN)C(=O)N[C@@H](CCCNC(=N)N)C(=O)N[C@@H](CCCNC(=N)N)C(=O)N[C@@H](CCCNC(=N)N)C(N)=O)NC(=O)C2(CCC2)NC(=O)[C@@H]2CCCN2C(=O)[C@H](Cc2cccc(F)c2)NC1=O`: the pIC50 in assay [1] is 8.34. `CC(=O)N[C@@H](C)C(=O)N[C@@H](CCCNC(=N)N)C(=O)N[C@@H](Cc1c[nH]c2ccccc12)C(=O)N[C@H]1CCCC[C@@H](C(=O)N2CCC[C@H]2C(=O)N[C@@H](CCCN)C(=O)N[C@@H](CCCNC(=N)N)C(N)=O)NC(=O)C2(CCC2)NC(=O)[C@@H]2CCCN2C(=O)[C@H](Cc2cccc(F)c2)NC1=O`: the pIC50 in assay [1] is 7.85. As for `CC(=O)N[C@@H](CO)C(=O)N[C@@H](C)C(=O)N[C@@H](CCCNC(=N)N)C(=O)N[C@@H](Cc1c[nH]c2ccccc12)C(=O)N[C@H]1CCCCCC[C@@H](C(=O)N2CCC[C@H]2C(=O)N[C@@H](CCCNC(=N)N)C(N)=O)NC(=O)[C@H](C)NC(=O)[C@@H]2CCCN2C(=O)[C@H](Cc2ccccc2)NC1=O`, in assay [2], the pIC50 is 6.18. Turning to `CC(=O)N[C@@H](CO)C(=O)N[C@@H](C)C(=O)N[C@@H](CCCNC(=N)N)C(=O)N[C@@H](Cc1c[nH]c2ccccc12)C(=O)N[C@H]1CCCC[C@@H](C(=O)N2CCC[C@H]2C(=O)N[C@@H](CCCNC(=N)N)C(N)=O)NC(=O)[C@H](C)NC(=O)[C@@H]2CCCN2C(=O)[C@H](Cc2ccccc2)NC1=O`, in assay [2], the pIC50 is 6.91. As to `CC(=O)N[C@@H](CO)C(=O)N[C@@H](C)C(=O)N[C@@H](CCCNC(=N)N)C(=O)N[C@@H](Cc1c[nH]c2ccccc12)C(=O)N[C@H]1CCCC[C@@H](C(=O)N2CCC[C@H]2C(=O)N[C@@H](CCCN)C(N)=O)NC(=O)C2(CCC2)NC(=O)[C@@H]2CCCN2C(=O)[C@H](Cc2cccc(F)c2)NC1=O`, the pIC50 in assay [1] is 6.24. On to `CC(=O)N[C@@H](C)C(=O)N[C@@H](CCCNC(=N)N)C(=O)N[C@@H](Cc1c[nH]c2ccccc12)C(=O)N[C@H]1C/C=C\C[C@@H](C(=O)N2CCC[C@H]2C(=O)N[C@@H](CCCNC(=N)N)C(N)=O)NC(=O)[C@H](C)NC(=O)[C@@H]2CCCN2C(=O)[C@H](Cc2ccccc2)NC1=O` (Ac-ARW[AllylGly]FPA[AllylGly]PR-NH2; staple (Z) 4-8), for which the pIC50 in assay [2] was 6.82. Regarding `CC(=O)N[C@@H](C)C(=O)N[C@@H](CCCNC(=N)N)C(=O)N[C@@H](Cc1c[nH]c2ccccc12)C(=O)N[C@H]1C/C=C\C[C@@H](C(=O)N2CCC[C@H]2C(=O)N[C@@H](CCCN)C(N)=O)NC(=O)C2(CCC2)NC(=O)[C@@H]2CCCN2C(=O)[C@H](Cc2cccc(F)c2)NC1=O` (Ac-ARW[AllylGly][Phe(3-F)]P[Ac4c][AllylGly]P[Orn]-NH2; staple (Z) 4-8), in assay [1], the pIC50 is 5.91. On the same count and under the same terms, then `CC(=O)N[C@@H](C)C(=O)N[C@@H](CCCNC(=N)N)C(=O)N[C@@H](Cc1c[nH]c2ccccc12)C(=O)N[C@H]1C/C=C\C[C@@H](C(=O)N2CCC[C@H]2C(=O)N[C@@H](CCCN)C(=O)N[C@@H](CCCNC(=N)N)C(N)=O)NC(=O)C2(CCC2)NC(=O)[C@@H]2CCCN2C(=O)[C@H](Cc2cccc(F)c2)NC1=O` (Ac-ARW[AllylGly][Phe(3-F)]P[Ac4c][AllylGly]P[Orn]R-NH2; staple (Z) 4-8), with 7.24.

For the compound `CC(=O)N[C@@H](C)C(=O)N[C@@H](CCCNC(=N)N)C(=O)N[C@@H](Cc1c[nH]c2ccccc12)C(=O)N[C@H]1C/C=C\C[C@@H](C(=O)N2CCC[C@H]2C(=O)N[C@@H](CCCN)C(=O)N[C@@H](CCCNC(=N)N)C(=O)N[C@@H](CCCNC(=N)N)C(=O)N[C@@H](CCCNC(=N)N)C(N)=O)NC(=O)C2(CCC2)NC(=O)[C@@H]2CCCN2C(=O)[C@H](Cc2cccc(F)c2)NC1=O` (Ac-ARW[AllylGly][Phe(3-F)]P[Ac4c][AllylGly]P[Orn]RRR-NH2; staple (Z) 4-8), the pIC50 in assay [1] is 8.63. Consider `CC(=O)N[C@@H](CCCNC(=N)N)C(=O)N[C@@H](Cc1c[nH]c2ccccc12)C(=O)N[C@H]1C/C=C\C[C@@H](C(=O)N2CCC[C@H]2C(=O)N[C@@H](CCCNC(=N)N)C(N)=O)NC(=O)[C@H](C)NC(=O)[C@@H]2CCCN2C(=O)[C@H](Cc2ccccc2)NC1=O` (Ac-RW[AllylGly]FPA[AllylGly]PR-NH2; staple (Z) 3-7), for which, in assay [2], the pIC50 was 6.43. On the same count and under the same terms, the same measure for `CC(=O)N[C@@H](CO)C(=O)N[C@@H](C)C(=O)N[C@@H](CCCNC(=N)N)C(=O)N[C@@H](Cc1c[nH]c2ccccc12)C(=O)N[C@H]1C/C=C\C[C@@H](C(=O)N2CCC[C@H]2C(N)=O)NC(=O)[C@H](C)NC(=O)[C@@H]2CCCN2C(=O)[C@H](Cc2ccccc2)NC1=O` (Ac-SARW[AllylGly]FPA[AllylGly]P-NH2; staple (Z) 5-9): 5.17; for `CC(=O)N[C@@H](CO)C(=O)N[C@@H](C)C(=O)N[C@@H](CCCNC(=N)N)C(=O)N[C@@H](Cc1c[nH]c2ccccc12)C(=O)N[C@H]1C/C=C\C[C@@H](C(=O)N2CCC[C@H]2C(=O)NCC(=O)N[C@H](C(N)=O)[C@@H](C)O)NC(=O)[C@H](C)NC(=O)[C@@H]2CCCN2C(=O)[C@H](Cc2ccccc2)NC1=O` (Ac-SARW[AllylGly]FPA[AllylGly]PGT-NH2; staple (Z) 5-9): 4.39. On the same count and under the same terms, then `CC(=O)N[C@@H](CO)C(=O)N[C@@H](C)C(=O)N[C@@H](CCCNC(=N)N)C(=O)N[C@@H](Cc1c[nH]c2ccccc12)C(=O)N[C@H]1C/C=C\C[C@@H](C(=O)N2CCC[C@H]2C(=O)N[C@@H](CCCCN)C(N)=O)NC(=O)[C@H](C)NC(=O)[C@@H]2CCCN2C(=O)[C@H](Cc2ccccc2)NC1=O` (Ac-SARW[AllylGly]FPA[AllylGly]PK-NH2; staple (Z) 5-9), with 5.86; and `CC(=O)N[C@@H](CO)C(=O)N[C@@H](C)C(=O)N[C@@H](CCCNC(=N)N)C(=O)N[C@@H](Cc1c[nH]c2ccccc12)C(=O)N[C@H]1C/C=C\C[C@@H](C(=O)N2CCC[C@H]2C(=O)N[C@@H](CCCNC(=N)N)C(N)=O)NC(=O)[C@H](C)NC(=O)[C@@H]2CCCN2C(=O)[C@H](Cc2ccccc2)NC1=O` (Ac-SARW[AllylGly]FPA[AllylGly]PR-NH2; staple (Z) 5-9), with 6.11.

On to `CC(=O)N[C@@H](CO)C(=O)N[C@@H](C)C(=O)N[C@@H](CCCNC(=N)N)C(=O)N[C@@H](Cc1c[nH]c2ccccc12)C(=O)N[C@H]1C/C=C\C[C@@H](C(=O)N2CCC[C@H]2C(=O)N[C@@H](CCCNC(=N)N)C(=O)N[C@H](C(N)=O)[C@@H](C)O)NC(=O)[C@H](C)NC(=O)[C@@H]2CCCN2C(=O)[C@H](Cc2ccccc2)NC1=O` (Ac-SARW[AllylGly]FPA[AllylGly]PRT-NH2; staple (Z) 5-9), for which, in assay [2], the negative logarithm of the IC50 (pIC50) is 5.74. Turning to `CC(=O)N[C@@H](CO)C(=O)N[C@@H](C)C(=O)N[C@@H](CCCNC(=N)N)C(=O)N[C@@H](Cc1c[nH]c2ccccc12)C(=O)N[C@H]1C/C=C\C[C@@H](C(=O)N2CCC[C@H]2C(=O)N[C@@H](CCCN)C(N)=O)NC(=O)[C@H](C)NC(=O)[C@@H]2CCCN2C(=O)[C@H](Cc2ccccc2)NC1=O` (Ac-SARW[AllylGly]FPA[AllylGly]P[Orn]-NH2; staple (Z) 5-9), in assay [2], the pIC50 was 6.85. Same read-out and setting: the same measure for `CC(=O)N[C@@H](CO)C(=O)N[C@@H](C)C(=O)N[C@@H](CCCNC(=N)N)C(=O)N[C@@H](Cc1c[nH]c2ccccc12)C(=O)N[C@H]1C/C=C\CC[C@@H](C(=O)N2CCC[C@H]2C(=O)N[C@@H](CCCNC(=N)N)C(N)=O)NC(=O)[C@H](C)NC(=O)[C@@H]2CCCN2C(=O)[C@H](Cc2ccccc2)NC1=O` (Ac-SARW[AllylGly]FPA[Hag]PR-NH2; staple (Z) 5-9): 5.52; for `CC(=O)N[C@@H](CO)C(=O)N[C@@H](C)C(=O)N[C@@H](CCCNC(=N)N)C(=O)N[C@@H](Cc1c[nH]c2ccccc12)C(=O)N[C@H]1C/C=C\C[C@@H](C(=O)N2CCC[C@H]2C(=O)N[C@@H](CCCNC(=N)N)C(N)=O)NC(=O)C2(CCC2)NC(=O)[C@@H]2CCCN2C(=O)[C@H](Cc2ccccc2)NC1=O` (Ac-SARW[AllylGly]FP[Ac4c][AllylGly]PR-NH2; staple (Z) 5-9): 7.08; for `CC(=O)N[C@@H](CO)C(=O)N[C@@H](C)C(=O)N[C@@H](CCCNC(=N)N)C(=O)N[C@@H](Cc1c[nH]c2ccccc12)C(=O)N[C@H]1C/C=C\C[C@@H](C(=O)N2CCC[C@H]2C(=O)N[C@@H](CCCNC(=N)N)C(N)=O)NC(=O)[C@H](C)NC(=O)[C@@H]2CCCN2C(=O)[C@H](Cc2cccc(F)c2)NC1=O` (Ac-SARW[AllylGly][Phe(3-F)]PA[AllylGly]PR-NH2; staple (Z) 5-9): 6.55. On to `CC(=O)N[C@@H](CO)C(=O)N[C@@H](C)C(=O)N[C@@H](CCCNC(=N)N)C(=O)N[C@@H](Cc1c[nH]c2ccccc12)C(=O)N[C@H]1C/C=C\C[C@@H](C(=O)N2CCC[C@H]2C(=O)N[C@@H](CCCN)C(N)=O)NC(=O)C2(CCC2)NC(=O)[C@@H]2CCCN2C(=O)[C@H](Cc2cccc(F)c2)NC1=O` (Ac-SARW[AllylGly][Phe(3-F)]P[Ac4c][AllylGly]P[Orn]-NH2; staple (Z) 5-9), for which the pIC50 in assay [1] is 6.11.

For the compound `CC(=O)N[C@@H](CO)C(=O)N[C@@H](C)C(=O)N[C@@H](CCCNC(=N)N)C(=O)N[C@@H](Cc1c[nH]c2ccccc12)C(=O)N[C@H]1CC/C=C\CC[C@@H](C(=O)N2CCC[C@H]2C(=O)N[C@@H](CCCNC(=N)N)C(N)=O)NC(=O)[C@H](C)NC(=O)[C@@H]2CCCN2C(=O)[C@H](Cc2ccccc2)NC1=O` (Ac-SARW[Hag]FPA[Hag]PR-NH2; staple (Z) 5-9), in assay [2], the pIC50 was 5.96. On the same count and under the same terms, the same measure for `CC(=O)N[C@@H](Cc1c[nH]c2ccccc12)C(=O)N[C@H]1C/C=C\C[C@@H](C(=O)N2CCC[C@H]2C(=O)N[C@@H](CCCNC(=N)N)C(N)=O)NC(=O)[C@H](C)NC(=O)[C@@H]2CCCN2C(=O)[C@H](Cc2ccccc2)NC1=O` (Ac-W[AllylGly]FPA[AllylGly]PR-NH2; staple (Z) 2-6): 4.11.

Take Ac-RWRFPARPGTGRR-NH2: the pIC50 in assay [1] is 7.31. As for Ac-SARWAFPAAP-NH2, the negative logarithm of the IC50 (pIC50) in assay [2] is 4.72. Still for that read-out and setting: then Ac-SARWAFPAAPGT-NH2, with 4.21; and Ac-SARWAFPAAPRT-NH2, with 5.77. Same read-out and setting: then Ac-SARWAFPAGPR-NH2, with 5.89.
